Measurements from US20250213478A1, “CATIONIC LIPID HAVING DISULFIDE BOND, LIPID MEMBRANE STRUCTURE INCLUDING SAME, NUCLEIC ACID INTRODUCTION AGENT AND PHARMACEUTICAL COMPOSITION CONTAINING ANY ONE OF SAME, METHOD FOR INTRODUCING NUCLEIC ACID INTO CELL OR TARGET CELL, AND METHOD FOR PRODUCING CELLULAR PHARMACEUTICAL” (NOF Corporation, priority 2022, published 2025).

Assays:
[1] = Measurement of Liposomal pKa of LNP (TNS fluorescence); assay type: physicochemical; settings: LNP without nucleic acid, cationic lipid:DOPC:Chol=52.5:7.5:40 + about 1.5 mol DMG-PEG2k; pH at which relative TNS fluorescence intensity was 50%
Summary of the method: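 Nucleic-acid-free LNPs (cationic lipid:DOPC:Chol 52.5:7.5:40, ~1.5 mol DMG-PEG2k) prepared by microfluidic mixing, diluted to 0.5 mM lipid, mixed with TNS in 150 mM NaCl buffers spanning pH 3.0–10.0. Fluorescence at ex 321/em 447 nm normalised 0–100% per LNP; pKa is the pH at 50%.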

[2] = Particle size, PdI and zeta potential of mRNA-encapsulating LNPs (dynamic light scattering); assay type: physicochemical; settings: mRNA-encapsulating LNP, cationic lipid:DOPC:Chol=55:5:40 + about 1 mol DMG-PEG2k; for PdI / particle size: dynamic light scattering; for zeta potential: physiological pH
Summary of the method: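 LNPs were made from cationic lipid:DOPC:Chol at 55:5:40 molar ratio plus about 1 mol DMG-PEG2k, microfluidically mixed with mRNA in malate buffer (20 mM, pH 3.0, 30 mM NaCl). They were ultrafiltered into PBS at 2 mM lipid. Size, PdI and zeta potential were measured by dynamic light scattering.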

HeLa cells = assay: Evaluation of in vitro gene expression in HeLa cell (luciferase mRNA-encapsulating LNP); assay type: cell-based, human; settings: for cumulative luciferase luminescence intensity over 24 hr: luciferase mRNA 0.4 μg per dish, LNP cationic lipid:DOPC:Chol:DMG-PEG2k=55:5:40:1; for gene expression activity compared to Comparative Example: result in words
Summary of the method: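 LNP (cationic lipid:DOPC:Chol:DMG-PEG2k=55:5:40:1) carrying luciferase mRNA, 0.4 μg mRNA per 3.5 cm dish, added to HeLa cells in D-MEM with 0.1 mM D-luciferin. Luminescence read 2 min every hour in an incubator luminometer; value is cumulative luminescence over 24 hr.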

BALB/c mouse = assay: Evaluation of in vivo gene expression (luciferase mRNA-encapsulating LNP, IVIS of isolated organs); settings: for relative value based on Comparative Example (amount of luminescence in spleen): relative to O-Ph-P4C2 LNP = 1.00; for amount of luminescence in each organ: heart / amount of luminescence in each organ: kidney / amount of luminescence in each organ: liver / amount of luminescence in each organ: lung / amount of luminescence in each organ: spleen: tail vein, mRNA 0.05 mg/kg, 4.5 hr + 15 min after administration; for amount of luminescence in each organ: spleen: spleen (Table 7)
Summary of the method: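 Luciferase mRNA in LNP (cationic lipid:DOPC:Chol:DMG-PEG2k = 55:5:40:1 molar) given by tail vein to male 5-week-old BALB/c mice at 0.05 mg mRNA/kg. At 4.5 hr, D-luciferin (3 mg/mouse) was given intraperitoneally; 15 min later liver, spleen, kidney, heart and lung were excised and luminescence (photons/sec) quantified by IVIS imaging.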

Structure (SMILES) | pKa [1] | PdI [2] | particle size [2] | zeta potential [2] | cumulative luciferase luminescence intensity over 24 hr (HeLa cells) | gene expression activity compared to Comparative Example (HeLa cells) | relative value based on Comparative Example (amount of luminescence in spleen) (BALB/c mouse) | amount of luminescence in each organ: heart (BALB/c mouse) | amount of luminescence in each organ: kidney (BALB/c mouse) | amount of luminescence in each organ: liver (BALB/c mouse) | amount of luminescence in each organ: lung (BALB/c mouse) | amount of luminescence in each organ: spleen (BALB/c mouse)
CCCCCCCC/C=C\CCCCCCCC(=O)OCC(C)(COC(=O)CCCCCCC/C=C\CCCCCCCC)C(=O)Oc1ccc(CC(=O)OCCSSCCOC(=O)NCCN(C)CCO)cc1 [Example 36] | 7.3 | 0.090 | 92 nm | −2.5 mV | 7.66E+07 RLU | superior gene expression activity | 0.19 | 9.67E+05 photons/sec | 6.33E+05 photons/sec | 2.33E+06 photons/sec | 8.67E+05 photons/sec | 2.00E+06 photons/sec
CCCCCCCCCCCCCCC(CCCCCCCCCCCCCC)C(=O)Oc1ccc(CC(=O)OCCSSCCOC(=O)CCCN(C)C)cc1 [Example 7] | 7.8 | 0.077 | 92 nm | 6.8 mV | 2.13E+08 RLU | superior gene expression activity | 0.37 | 6.86E+05 photons/sec | 6.35E+05 photons/sec | 1.23E+06 photons/sec | 8.28E+05 photons/sec | 4.03E+06 photons/sec
CCCCCCCCCCCCCCCCC(CCCCCCCCCCCCCCCC)C(=O)Oc1ccc(CC(=O)OCCSSCCOC(=O)N(C)CCN(CC)CC)cc1 [Example 29] | 6.7 | 0.080 | 59 nm | 1.2 mV | 1.75E+07 RLU | superior gene expression activity | 0.29 | 7.27E+05 photons/sec | 6.29E+05 photons/sec | 8.05E+07 photons/sec | 7.49E+05 photons/sec | 3.16E+06 photons/sec
CCCCCCCCCCCCCCCCC(CCCCCCCCCCCCCCCC)C(=O)Oc1ccc(CC(=O)OCCSSCCOC(=O)NCCN(C)C)cc1 [Example 21] | 7.9 | 0.118 | 116 nm | 6.4 mV | 1.22E+08 RLU | superior gene expression activity | 0.05 | 3.41E+05 photons/sec | 5.83E+05 photons/sec | 3.68E+05 photons/sec | 6.51E+05 photons/sec | 5.86E+05 photons/sec
CCCCCCCCCCCCCCCCC(CCCCCCCCCCCCCCCC)C(=O)Oc1ccc(CC(=O)OCCSSCCOC(=O)OCCN(C)C)cc1 [Example 30] | 6.4 | 0.080 | 59 nm | 2.3 mV | 1.35E+07 RLU | superior gene expression activity | 0.12 | 6.17E+05 photons/sec | 3.80E+05 photons/sec | 1.98E+07 photons/sec | 5.26E+05 photons/sec | 1.24E+06 photons/sec
